# Data as given in US20070049593A1 (priority 2004, published 2007).
# Biological target: T1, HCV polymerase (Hepatitis C virus genotype 1b, UniProt P26663)
# T1 construct: a region encoding NS5B (J Virol 1991 March, 65(3), 1105-13, 544 amino acids after deletion of 47 amino acids on the C-terminal); 6xHis (C); made in house; host or cells: Escherichia coli
# Assay: biochemical
# Parameters: species or system HCV BK strain
# In short: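 Recombinant HCV BK-strain NS5B (C-terminal 47 aa deleted, His6-tagged, E. coli), 0.5 μg/ml, run with 5 μg/ml in vitro-transcribed RNA template (polyU/3′X), ATP/GTP/CTP 50 μM, UTP 2 μM plus [3H]UTP, pH 7.5, 25° C, 90 min. TCA-precipitated RNA counted by scintillation; IC50 from activity with vs without compound.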
# T1 sequence (P26663 2420-2963): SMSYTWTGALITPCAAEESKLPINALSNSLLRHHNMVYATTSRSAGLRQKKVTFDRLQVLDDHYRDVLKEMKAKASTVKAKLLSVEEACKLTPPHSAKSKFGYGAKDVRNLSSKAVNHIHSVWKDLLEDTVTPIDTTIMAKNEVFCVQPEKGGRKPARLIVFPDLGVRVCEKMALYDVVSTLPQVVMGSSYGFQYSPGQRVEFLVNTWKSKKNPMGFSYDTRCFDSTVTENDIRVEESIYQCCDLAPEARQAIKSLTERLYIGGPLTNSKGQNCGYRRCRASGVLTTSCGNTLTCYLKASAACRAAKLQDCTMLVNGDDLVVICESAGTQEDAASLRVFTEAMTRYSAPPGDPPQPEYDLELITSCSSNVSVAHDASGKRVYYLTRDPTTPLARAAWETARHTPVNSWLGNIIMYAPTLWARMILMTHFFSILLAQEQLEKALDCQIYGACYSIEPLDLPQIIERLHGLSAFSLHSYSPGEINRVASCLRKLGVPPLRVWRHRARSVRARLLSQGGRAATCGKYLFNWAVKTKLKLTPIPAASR
row,SMILES,IC50 [nM]
1,"COc1ccc2c(c1)OCCn1c-2c(C2CCCCC2)c2ccc(C(=O)NC(C)(C)c3nc4ccc(C(=O)O)cc4[nH]3)cc21 [Example 2-332, 2-{1-[(12-cyclohexyl-3-methoxy-6,7-dihydro-5-oxa-7a-azadibenzo[a,e]azulene-9-carbonyl)amino]-1-methylethyl}-3H-benzimidazole-5-carboxylic acid]",< 100
2,"CCN(CCCCOC)C(=O)C(C)(C)NC(=O)c1ccc2c(C3CCCCC3)c3n(c2c1)CCOc1ccccc1-3 [Example 2-333, N-{1-[N-ethyl-N-(4-methoxybutyl)carbamoyl]-1-methylethyl}-12-cyclohexyl-6,7-dihydro-5-oxa-7a-azadibenzo[a,e]azulene-9-carboxamide]",< 100
3,"CC(=O)NC1CCN(C(=O)C(C)(C)NC(=O)c2ccc3c(C4CCCCC4)c4n(c3c2)CCOc2ccccc2-4)CC1 [Example 2-334, N-[2-(4-acetylaminopiperidin-1-yl)-1,1-dimethyl-2-oxoethyl]-12-cyclohexyl-6,7-dihydro-5-oxa-7a-azadibenzo[a,e]azulene-9-carboxamide]",< 100
4,"CC(C)(NC(=O)c1ccc2c(C3CCCCC3)c3n(c2c1)CCOc1ccccc1-3)C(=O)N1CCC(NS(C)(=O)=O)CC1 [Example 2-335, N-[2-(4-methanesulfonylaminopiperidin-1-yl)-1,1-dimethyl-2-oxoethyl]-12-cyclohexyl-6,7-dihydro-5-oxa-7a-azadibenzo[a,e]azulene-9-carboxamide]",< 100
5,"COC(=O)c1ccc2nc(C(C)(C)NC(=O)c3ccc4c(C5CCCCC5)c5n(c4c3)CCOc3ccccc3-5)n(C)c2c1 [Example 2-336, methyl 2-{1-[(12-cyclohexyl-6,7-dihydro-5-oxa-7a-azadibenzo[a,e]azulene-9-carbonyl)amino]-1-methylethyl}-3-methyl-3H-benzimidazole-5-carboxylate]",< 100
6,"Cn1c(C(C)(C)NC(=O)c2ccc3c(C4CCCCC4)c4n(c3c2)CCOc2ccccc2-4)nc2ccc(C(=O)O)cc21 [Example 2-337, 2-{1-[(12-cyclohexyl-6,7-dihydro-5-oxa-7a-azadibenzo[a,e]azulene-9-carbonyl)amino]-1-methylethyl}-3-methyl-3H-benzimidazole-5-carboxylic acid]",< 100
7,"COC(=O)[C@H](Cc1ccc(NC(C)=O)cc1)NC(=O)c1ccc2c(C3CCCCC3)c3n(c2c1)CCOc1cc(OC)ccc1-3 [Example 2-338, methyl (S)-3-(4-acetylaminophenyl)-2-[(12-cyclohexyl-3-methoxy-6,7-dihydro-5-oxa-7a-azadibenzo[a,e]azulene-9-carbonyl)amino]propionate]",< 100
8,"COC(=O)[C@H](Cc1ccc(NS(C)(=O)=O)cc1)NC(=O)c1ccc2c(C3CCCCC3)c3n(c2c1)CCOc1cc(OC)ccc1-3 [Example 2-339, methyl (S)-2-[(12-cyclohexyl-3-methoxy-6,7-dihydro-5-oxa-7a-azadibenzo[a,e]azulene-9-carbonyl)amino]-3-(4-methanesulfonylaminophenyl)propionate]",< 100
9,"COc1ccc2c(c1)OCCn1c-2c(C2CCCCC2)c2ccc(C(=O)N[C@@H](Cc3ccc(NC(C)=O)cc3)C(=O)O)cc21 [Example 2-340, (S)-3-(4-acetylaminophenyl)-2-[(12-cyclohexyl-3-methoxy-6,7-dihydro-5-oxa-7a-azadibenzo[a,e]azulene-9-carbonyl)amino]propionic acid]",< 100
10,"COc1ccc2c(c1)OCCn1c-2c(C2CCCCC2)c2ccc(C(=O)N[C@@H](Cc3ccc(NS(C)(=O)=O)cc3)C(=O)O)cc21 [Example 2-341, (S)-2-[(12-cyclohexyl-3-methoxy-6,7-dihydro-5-oxa-7a-azadibenzo[a,e]azulene-9-carbonyl)amino]-3-(4-methanesulfonylaminophenyl)propionic acid]",< 100
11,COCCCN(CCN1CCCCC1)c1cccc2c1OCCn1c-2c(C2CCCCC2)c2ccc(C(=O)O)cc21 [Example 2-342],< 100
